{"source": "patent US10201523B2", "about": "“Use of wilforlide A for overcoming chemotherapy resistance” (WESTERN UNIVERSITY OF HEALTH SCIENCES, priority 2013, dated 2019)", "system": "PC3", "experiment": "SRB cell viability assay, docetaxel with/without wilforlide A pretreatment", "conditions": "PC3", "key": {"[1]": {"conditions": "no wilforlide A pre-Tx (control of Table 4), docetaxel 0.001 nM 72 h"}, "[2]": {"conditions": "no wilforlide A pre-Tx (control of Table 4), docetaxel 0.1 nM 72 h"}, "[3]": {"conditions": "no wilforlide A pre-Tx (control of Table 4), docetaxel 0.333 nM 72 h"}, "[4]": {"conditions": "no wilforlide A pre-Tx (control of Table 4), docetaxel 1 nM 72 h"}, "[5]": {"conditions": "no wilforlide A pre-Tx (control of Table 4), docetaxel 3.33 nM 72 h"}, "[6]": {"conditions": "no wilforlide A pre-Tx (control of Table 4), docetaxel 10 nM 72 h"}, "[7]": {"conditions": "no wilforlide A pre-Tx (control of Table 4), docetaxel 33.3 nM 72 h"}, "[8]": {"conditions": "no wilforlide A pre-Tx (control of Table 4), docetaxel 100 nM 72 h"}, "[9]": {"conditions": "no wilforlide A pre-Tx (control of Table 6), docetaxel 0.001 nM 72 h"}, "[10]": {"conditions": "no wilforlide A pre-Tx (control of Table 6), docetaxel 0.1 nM 72 h"}, "[11]": {"conditions": "no wilforlide A pre-Tx (control of Table 6), docetaxel 0.333 nM 72 h"}, "[12]": {"conditions": "no wilforlide A pre-Tx (control of Table 6), docetaxel 1 nM 72 h"}, "[13]": {"conditions": "no wilforlide A pre-Tx (control of Table 6), docetaxel 3.33 nM 72 h"}, "[14]": {"conditions": "no wilforlide A pre-Tx (control of Table 6), docetaxel 10 nM 72 h"}, "[15]": {"conditions": "no wilforlide A pre-Tx (control of Table 6), docetaxel 33.3 nM 72 h"}, "[16]": {"conditions": "no wilforlide A pre-Tx (control of Table 6), docetaxel 100 nM 72 h"}, "[17]": {"conditions": "no wilforlide A pre-Tx (control of Table 8), docetaxel 0.001 nM 72 h"}, "[18]": {"conditions": "no wilforlide A pre-Tx (control of Table 8), docetaxel 0.1 nM 72 h"}, "[19]": {"conditions": "no wilforlide A pre-Tx (control of Table 8), docetaxel 0.333 nM 72 h"}, "[20]": {"conditions": "no wilforlide A pre-Tx (control of Table 8), docetaxel 1 nM 72 h"}, "[21]": {"conditions": "no wilforlide A pre-Tx (control of Table 8), docetaxel 3.33 nM 72 h"}, "[22]": {"conditions": "no wilforlide A pre-Tx (control of Table 8), docetaxel 10 nM 72 h"}, "[23]": {"conditions": "no wilforlide A pre-Tx (control of Table 8), docetaxel 33.3 nM 72 h"}, "[24]": {"conditions": "no wilforlide A pre-Tx (control of Table 8), docetaxel 100 nM 72 h"}}, "note": "Several values for one entry are separate records, joined by “and”; a condition that tells them apart may be missing. Equal entries are not always repeated.", "protocol": "Following the 72 hour wilforlide A treatment, a sulforhodamine B (SRB) assay was used to quantitate living cells. To perform the assay, the wilforlide A media was aspirated from each well, and replaced with a 10% solution of cold trichloroacetic acid (TCA) (Cat #: T6399, purchased from Sigma-Aldrich), and incubated for one hour at 4° C. After the TCA incubation, the TCA solution was aspirated, and the cells were washed five times with tap water. After removing the last wash, the plates were left with lids off at room temperature until the surfaces were dry, which took one to two hours. Then 50 μl of a 0.4% solution of sul-forhodamine B (SRB) sodium salt (Cat #: S9012, purchased from Sigma-Aldrich) was added to each well and the plates were incubated at room temperature for 20 to 30 minutes. Afterwards, the wells were washed five times with a 1% acetic acid solution in 10 mM TRIS base (Cat #: 161-0719, purchased from Bio-Rad Laboratories, Hercules, Calif.). The plates were subsequently left to dry for several hours or overnight. SRB that remained in the dried wells was solubilized by adding 100 μl of SRB solubilization solution (10 mM TRIS base) to each well, and placing the plates either on a gently-moving shaker or letting the plates remain stationary at room temperature until the SRB dissolves, which takes about five to ten minutes. The amount of SRB in each well, which correlated directly to the number of living cells at fixation, was determined spectrophotometrically at an absorbance of 565 nm by a microplate reader.\nIn these comparisons, the in vitro IC50 of a tested chemotherapeutic drug (D) in cell culture was compared to the drug's IC50 when drug treatment followed pretreatment of the cells with wilforlide A (Purchased from PI & PI Technology Inc. of Guangzhou, China or the National Institutes for Food and Drug Control in Beijing, China).\nTriplicate wells were assigned to each experimental condition tested, and a 24 hour recovery period for the cells following the seeding of the wells was allowed. During the recovery period, the cells were incubated at 37° C. and 5% CO2.\nAt the end of the two hour pre-treatment period, 50 μl aliquots of the desired chemotherapeutic drug RPMI medium were added according to the amounts provided in Table 2.\nAfter adding the various doses of chemotherapeutic drugs, as described above, the cells were incubated for an additional 72 hours under the same temperature and atmospheric conditions used for the pre-treatment step.\nThe cells were then incubated for 72 hours at 37° C. and 5% CO2. After the 72 hour incubation, sulforhodamine B (SRB) assays were performed as described in Example 1 to quantitate living cells."}
{"smiles": "CC(=O)O[C@@]12CO[C@@H]1C[C@H](O)[C@@]1(C)C(=O)[C@H](O)C3=C(C)[C@@H](OC(=O)[C@H](O)[C@@H](NC(=O)OC(C)(C)C)c4ccccc4)C[C@@](O)([C@@H](OC(=O)c4ccccc4)[C@H]21)C3(C)C", "note": "[docetaxel]", "values": [{"measurement": "% viable", "setting": "[1]", "value": 100.0, "unit": "%"}, {"measurement": "mean A", "setting": "[1]", "value": 1.839}, {"measurement": "A at 565 nm", "setting": "no wilforlide A pre-Tx (control of Table 4), docetaxel 0.001 nM 72 h, background = 0.043", "value": "1.827 and 1.892 and 1.800"}, {"measurement": "% viable", "setting": "[2]", "value": 102.0, "unit": "%"}, {"measurement": "mean A", "setting": "[2]", "value": 1.876}, {"measurement": "A at 565 nm", "setting": "no wilforlide A pre-Tx (control of Table 4), docetaxel 0.1 nM 72 h, background = 0.043", "value": "1.875 and 1.878"}, {"measurement": "% viable", "setting": "[3]", "value": 97.7, "unit": "%"}, {"measurement": "mean A", "setting": "[3]", "value": 1.796}, {"measurement": "A at 565 nm", "setting": "no wilforlide A pre-Tx (control of Table 4), docetaxel 0.333 nM 72 h, background = 0.043", "value": "1.845 and 1.808 and 1.737"}, {"measurement": "% viable", "setting": "[4]", "value": 74.7, "unit": "%"}, {"measurement": "mean A", "setting": "[4]", "value": 1.374}, {"measurement": "A at 565 nm", "setting": "no wilforlide A pre-Tx (control of Table 4), docetaxel 1 nM 72 h, background = 0.043", "value": "1.452 and 1.366 and 1.306"}, {"measurement": "% viable", "setting": "[5]", "value": 46.3, "unit": "%"}, {"measurement": "mean A", "setting": "[5]", "value": 0.851}, {"measurement": "A at 565 nm", "setting": "no wilforlide A pre-Tx (control of Table 4), docetaxel 3.33 nM 72 h, background = 0.043", "value": "0.862 and 0.832 and 0.860"}, {"measurement": "% viable", "setting": "[6]", "value": 22.5, "unit": "%"}, {"measurement": "mean A", "setting": "[6]", "value": 0.415}, {"measurement": "A at 565 nm", "setting": "no wilforlide A pre-Tx (control of Table 4), docetaxel 10 nM 72 h, background = 0.043", "value": "0.432 and 0.409 and 0.404"}, {"measurement": "% viable", "setting": "[7]", "value": 16.4, "unit": "%"}, {"measurement": "mean A", "setting": "[7]", "value": 0.303}, {"measurement": "A at 565 nm", "setting": "no wilforlide A pre-Tx (control of Table 4), docetaxel 33.3 nM 72 h, background = 0.043", "value": "0.321 and 0.295 and 0.293"}, {"measurement": "% viable", "setting": "[8]", "value": 15.9, "unit": "%"}, {"measurement": "mean A", "setting": "[8]", "value": 0.293}, {"measurement": "A at 565 nm", "setting": "no wilforlide A pre-Tx (control of Table 4), docetaxel 100 nM 72 h, background = 0.043", "value": "0.300 and 0.270 and 0.311"}, {"measurement": "% viable", "setting": "[9]", "value": 100.0, "unit": "%"}, {"measurement": "mean A", "setting": "[9]", "value": 1.952}, {"measurement": "A at 565 nm", "setting": "no wilforlide A pre-Tx (control of Table 6), docetaxel 0.001 nM 72 h, background = 0.044", "value": "1.888 and 2.010 and 1.957"}, {"measurement": "% viable", "setting": "[10]", "value": 100.7, "unit": "%"}, {"measurement": "mean A", "setting": "[10]", "value": 1.966}, {"measurement": "A at 565 nm", "setting": "no wilforlide A pre-Tx (control of Table 6), docetaxel 0.1 nM 72 h, background = 0.044", "value": "1.980 and 1.925 and 1.992"}, {"measurement": "% viable", "setting": "[11]", "value": 93.1, "unit": "%"}, {"measurement": "mean A", "setting": "[11]", "value": 1.817}, {"measurement": "A at 565 nm", "setting": "no wilforlide A pre-Tx (control of Table 6), docetaxel 0.333 nM 72 h, background = 0.044", "value": "1.735 and 1.845 and 1.871"}, {"measurement": "% viable", "setting": "[12]", "value": 70.9, "unit": "%"}, {"measurement": "mean A", "setting": "[12]", "value": 1.384}, {"measurement": "A at 565 nm", "setting": "no wilforlide A pre-Tx (control of Table 6), docetaxel 1 nM 72 h, background = 0.044", "value": "1.398 and 1.314 and 1.441"}, {"measurement": "% viable", "setting": "[13]", "value": 46.6, "unit": "%"}, {"measurement": "mean A", "setting": "[13]", "value": 0.909}, {"measurement": "A at 565 nm", "setting": "no wilforlide A pre-Tx (control of Table 6), docetaxel 3.33 nM 72 h, background = 0.044", "value": "0.895 and 0.942 and 0.889"}, {"measurement": "% viable", "setting": "[14]", "value": 22.9, "unit": "%"}, {"measurement": "mean A", "setting": "[14]", "value": 0.447}, {"measurement": "A at 565 nm", "setting": "no wilforlide A pre-Tx (control of Table 6), docetaxel 10 nM 72 h, background = 0.044", "value": "0.464 and 0.427 and 0.450"}, {"measurement": "% viable", "setting": "[15]", "value": 18.1, "unit": "%"}, {"measurement": "mean A", "setting": "[15]", "value": 0.354}, {"measurement": "A at 565 nm", "setting": "no wilforlide A pre-Tx (control of Table 6), docetaxel 33.3 nM 72 h, background = 0.044", "value": "0.337 and 0.357 and 0.368"}, {"measurement": "% viable", "setting": "[16]", "value": 18.4, "unit": "%"}, {"measurement": "mean A", "setting": "[16]", "value": 0.360}, {"measurement": "A at 565 nm", "setting": "no wilforlide A pre-Tx (control of Table 6), docetaxel 100 nM 72 h, background = 0.044", "value": "0.349 and 0.366 and 0.365"}, {"measurement": "% viable", "setting": "[17]", "value": 100.0, "unit": "%"}, {"measurement": "mean A", "setting": "[17]", "value": 1.990}, {"measurement": "% viable", "setting": "[18]", "value": 101.2, "unit": "%"}, {"measurement": "mean A", "setting": "[18]", "value": 2.014}, {"measurement": "% viable", "setting": "[19]", "value": 95.1, "unit": "%"}, {"measurement": "mean A", "setting": "[19]", "value": 1.892}, {"measurement": "% viable", "setting": "[20]", "value": 71.2, "unit": "%"}, {"measurement": "mean A", "setting": "[20]", "value": 1.417}, {"measurement": "% viable", "setting": "[21]", "value": 45.8, "unit": "%"}, {"measurement": "mean A", "setting": "[21]", "value": 0.911}, {"measurement": "% viable", "setting": "[22]", "value": 23.0, "unit": "%"}, {"measurement": "mean A", "setting": "[22]", "value": 0.458}, {"measurement": "% viable", "setting": "[23]", "value": 17.8, "unit": "%"}, {"measurement": "mean A", "setting": "[23]", "value": 0.354}, {"measurement": "% viable", "setting": "[24]", "value": 17.4, "unit": "%"}, {"measurement": "mean A", "setting": "[24]", "value": 0.346}]}
